Results from US6544991B2, “Compositions and methods for treating bacterial infections” (priority 2000, dated 2003).
Where two headings read alike, the source gives them in different places. Each block holds one compound with its values, some of them ahead of it.

Key:
VRSA strains = test: MIC by agar dilution or microbroth dilution method (NCCLS), VRSA strains; format: cell-based, Staph. aureus; settings: VRSA strains (n = 10)
Procedure: (§1) Bacterial isolates were obtained from human infections. The isolates were maintained frozen in a liquid nitrogen freezer and plated on Trypticase Soy Agar (TSA) plates supplemented with 5% sheep blood. The quality control strain Staph. aureus 29213 was originally acquired from the American Type Culture Collection (Rockville, Md.).
(§2) MICs were determined by an agar dilution method or microbroth dilution method recommended by NCCLS. Synergy was assessed by agar dilution checker-board method. Minimal inhibitory concentrations (MICS) for each separate drug were determined. The fractional inhibitory concentration (FIC) values were calculated by the MIC of Drug A (e.g., sulbactam/ampicillin) and Drug B (e.g., linezolid or arbekacin) in combination/MIC of Drug A or B alone. The FIC index was determined according to the following formula: [formula]
In total, 48 MRSA strains were tested, including ten VRSA strains isolated from five different countries in the world, 33 MRSA strains isolated from ten Japanese university hospitals, and five MRSA type strains from Juntendo University, Department of Bacteriology, Tokyo, Japan.

MRSA strains = test: MIC by agar dilution or microbroth dilution method (NCCLS); format: cell-based, Staph. aureus; settings: for MIC: Staphylococcus aureus
Procedure: as §1, §2

Staph. aureus 29213 = test: MIC, quality control strain; format: cell-based; settings: for MIC: Staphylococcus aureus
Procedure: as §1, §2

Compound: CN[C@H](CC(C)C)C(=O)N[C@H]1C(=O)N[C@@H](CC(N)=O)C(=O)N[C@H]2C(=O)N[C@H]3C(=O)N[C@H](C(=O)N[C@H](C(=O)O)c4cc(O)cc(O)c4-c4cc3ccc4O)[C@H](O)c3ccc(c(Cl)c3)Oc3cc2cc(c3O[C@@H]2O[C@H](CO)[C@@H](O)[C@H](O)[C@H]2O[C@H]2C[C@](C)(N)[C@H](O)[C@H](C)O2)Oc2ccc(cc2Cl)[C@H]1O [VCM, vancomycin]
MICs Range (VRSA strains): 2 to 4 mg/L
MICs Range (MRSA strains; MRSA strains (n = 38)): 0.5 to 2 mg/L
MIC (MRSA strains; MRSA / NCTC 10442, read-out: MIC Values, strain NCTC 10442): 1 µg/mL
MIC (MRSA strains; MRSA, read-out: MIC Values, strain 85/2082): 1 µg/mL
MIC (MRSA strains; MRSA, read-out: MIC Values, strain 99.3700W): 2 µg/mL
MIC (MRSA strains; MRSA, read-out: MIC Values, strain 99.3759V): 2 µg/mL
MIC (MRSA strains; MRSA, read-out: MIC Values, strain AMC 11094): 4 µg/mL
MIC (MRSA strains; MRSA, read-out: MIC Values, strain BM12612(new)): 2 µg/mL
MIC (MRSA strains; MRSA, read-out: MIC Values, strain H1): 0.5 µg/mL
MIC (MRSA strains; MRSA, read-out: MIC Values, strain HIP 5827): 4 µg/mL
MIC (MRSA strains; MRSA, read-out: MIC Values, strain HIP 5836): 4 µg/mL
MIC (MRSA strains; MRSA, read-out: MIC Values, strain HIP 6297): 2 µg/mL
MIC (MRSA strains; MRSA, read-out: MIC Values, strain HIP 7737): 4 µg/mL
MIC (MRSA strains; MRSA, read-out: MIC Values, strain JSCC 340): 1 µg/mL
MIC (MRSA strains; MRSA, read-out: MIC Values, strain JSCC 351): 1 µg/mL
MIC (MRSA strains; MRSA, read-out: MIC Values, strain JSCC 363): 1 µg/mL
MIC (MRSA strains; MRSA, read-out: MIC Values, strain JSCC 381): 1 µg/mL
MIC (MRSA strains; MRSA, read-out: MIC Values, strain JSCC 390): 1 µg/mL
MIC (MRSA strains; MRSA, read-out: MIC Values, strain JSCC 401): 1 µg/mL
MIC (MRSA strains; MRSA, read-out: MIC Values, strain JSCC 413): 1 µg/mL
MIC (MRSA strains; MRSA, read-out: MIC Values, strain JSCC 431): 0.5 µg/mL
MIC (MRSA strains; MRSA, read-out: MIC Values, strain JSCC 440): 1 µg/mL
MIC (MRSA strains; MRSA, read-out: MIC Values, strain JSCC 451): 1 µg/mL
MIC (MRSA strains; MRSA, read-out: MIC Values, strain JSCC 463): 1 µg/mL
MIC (MRSA strains; MRSA, read-out: MIC Values, strain JSCC 481): 1 µg/mL
MIC (MRSA strains; MRSA, read-out: MIC Values, strain JSCC 490): 1 µg/mL
MIC (MRSA strains; MRSA, read-out: MIC Values, strain JSCC 501): 1 µg/mL
MIC (MRSA strains; MRSA, read-out: MIC Values, strain JSCC 513): 1 µg/mL
MIC (MRSA strains; MRSA, read-out: MIC Values, strain JSCC 531): 1 µg/mL
MIC (MRSA strains; MRSA, read-out: MIC Values, strain JSCC 540): 1 µg/mL
MIC (MRSA strains; MRSA, read-out: MIC Values, strain JSCC 551): 0.5 µg/mL
MIC (MRSA strains; MRSA, read-out: MIC Values, strain JSCC 563): 1 µg/mL
MIC (MRSA strains; MRSA, read-out: MIC Values, strain JSCC 581 (lacks the mecA gene)): 1 µg/mL
MIC (MRSA strains; MRSA, read-out: MIC Values, strain JSCC 590 (lacks the mecA gene)): 1 µg/mL
MIC (MRSA strains; MRSA, read-out: MIC Values, strain JSCC 601): 0.5 µg/mL
MIC (MRSA strains; MRSA, read-out: MIC Values, strain JSCC 640): 1 µg/mL
MIC (MRSA strains; MRSA, read-out: MIC Values, strain JSCC 651): 1 µg/mL
MIC (MRSA strains; MRSA, read-out: MIC Values, strain JSCC 663): 1 µg/mL
MIC (MRSA strains; MRSA, read-out: MIC Values, strain JSCC 681): 1 µg/mL
MIC (MRSA strains; MRSA, read-out: MIC Values, strain JSCC 690): 1 µg/mL
MIC (MRSA strains; MRSA, read-out: MIC Values, strain JSCC 701): 1 µg/mL
MIC (MRSA strains; MRSA, read-out: MIC Values, strain JSCC 713): 2 µg/mL
MIC (MRSA strains; MRSA, read-out: MIC Values, strain JSCC 731): 0.5 µg/mL
MIC (MRSA strains; MRSA, read-out: MIC Values, strain JSCC 740): 0.5 µg/mL
MIC (MRSA strains; MRSA, read-out: MIC Values, strain JSCC 751): 0.5 µg/mL
MIC (MRSA strains; MRSA, read-out: MIC Values, strain JSCC 763): 0.5 µg/mL
MIC (MRSA strains; MRSA, read-out: MIC Values, strain JSCC 781): 2 µg/mL
MIC (MRSA strains; MRSA, read-out: MIC Values, strain JSCC 870): 1 µg/mL
MIC (MRSA strains; MRSA, read-out: MIC Values, strain LIM 2): 2 µg/mL
MIC (MRSA strains; MRSA, read-out: MIC Values, strain Mu 3): 1 µg/mL
MIC (MRSA strains; MRSA, read-out: MIC Values, strain Mu 50): 4 µg/mL
MIC (MRSA strains; MRSA, read-out: MIC Values, strain N315): 0.5 µg/mL
MIC (Staph. aureus 29213; ATCC29213, read-out: MIC Values, strain ATCC 29213, control sample (Ex. 26)): 1 µg/mL
MIC (Staph. aureus 29213; ATCC29213, read-out: MIC Values, strain ATCC29213, control sample (Ex. 37)): 0.5 µg/mL

MICs 50% (VRSA strains): 32 mg/L
MICs 90% (VRSA strains): 64 mg/L
MICs Range (VRSA strains): 1 to 128 mg/L
MICs 50% (MRSA strains; MRSA strains (n = 38)): 16 mg/L
MICs 90% (MRSA strains; MRSA strains (n = 38)): 64 mg/L
MICs Range (MRSA strains; MRSA strains (n = 38)): >0.125 to 128 mg/L
MIC Values (MRSA strains; strain 85/2082): 2 µg/mL
MIC Values (MRSA strains; strain 99.3700W): 32 µg/mL
MIC Values (MRSA strains; strain 99.3759V): 64 µg/mL
MIC Values (MRSA strains; strain AMC 11094): 32 µg/mL
MIC Values (MRSA strains; strain BM12612(new)): 128 µg/mL
MIC Values (MRSA strains; strain H1): 64 µg/mL
MIC Values (MRSA strains; strain HIP 5827): 64 µg/mL
MIC Values (MRSA strains; strain HIP 5836): 8 µg/mL
MIC Values (MRSA strains; strain HIP 6297): 1 µg/mL
MIC Values (MRSA strains; strain HIP 7737): 32 µg/mL
MIC Values (MRSA strains; strain JSCC 340): 64 µg/mL
MIC Values (MRSA strains; strain JSCC 351): 32 µg/mL
MIC Values (MRSA strains; strain JSCC 363): 32 µg/mL
MIC Values (MRSA strains; strain JSCC 381): 32 µg/mL
MIC Values (MRSA strains; strain JSCC 390): 32 µg/mL
MIC Values (MRSA strains; strain JSCC 401): 64 µg/mL
MIC Values (MRSA strains; strain JSCC 413): 16 µg/mL
MIC Values (MRSA strains; strain JSCC 431): 1 µg/mL
MIC Values (MRSA strains; strain JSCC 440): 16 µg/mL
MIC Values (MRSA strains; strain JSCC 451): 64 µg/mL
MIC Values (MRSA strains; strain JSCC 463): 64 µg/mL
MIC Values (MRSA strains; strain JSCC 481): 64 µg/mL
MIC Values (MRSA strains; strain JSCC 490): 32 µg/mL
MIC Values (MRSA strains; strain JSCC 501): 32 µg/mL
MIC Values (MRSA strains; strain JSCC 513): 8 µg/mL
MIC Values (MRSA strains; strain JSCC 531): 32 µg/mL
MIC Values (MRSA strains; strain JSCC 540): 64 µg/mL
MIC Values (MRSA strains; strain JSCC 551): 16 µg/mL
MIC Values (MRSA strains; strain JSCC 563): ≦0.125 mcg/mL
MIC Values (MRSA strains; strain JSCC 581 (lacks the mecA gene)): ≦0.125 mcg/mL
MIC Values (MRSA strains; strain JSCC 590 (lacks the mecA gene)): ≦0.125 mcg/mL
MIC Values (MRSA strains; strain JSCC 601): 1 µg/mL
MIC Values (MRSA strains; strain JSCC 640): 32 µg/mL
MIC Values (MRSA strains; strain JSCC 651): 32 µg/mL
MIC Values (MRSA strains; strain JSCC 663): 8 µg/mL
MIC Values (MRSA strains; strain JSCC 681): 8 µg/mL
MIC Values (MRSA strains; strain JSCC 690): 16 µg/mL
MIC Values (MRSA strains; strain JSCC 701): 32 µg/mL
MIC Values (MRSA strains; strain JSCC 713): 32 µg/mL
MIC Values (MRSA strains; strain JSCC 731): 32 µg/mL
MIC Values (MRSA strains; strain JSCC 740): 16 µg/mL
MIC Values (MRSA strains; strain JSCC 751): 32 µg/mL
MIC Values (MRSA strains; strain JSCC 763): 8 µg/mL
MIC Values (MRSA strains; strain JSCC 781): 32 µg/mL
MIC Values (MRSA strains; strain JSCC 870): 16 µg/mL
MIC Values (MRSA strains; strain LIM 2): 8 µg/mL
MIC Values (MRSA strains; strain Mu 3): 128 µg/mL
MIC Values (MRSA strains; strain Mu 50): 64 µg/mL
MIC Values (MRSA strains; strain N315): 1 µg/mL
MIC Values (MRSA strains; strain NCTC 10442): 64 µg/mL
MIC Values (Staph. aureus 29213; strain ATCC 29213, control sample (Ex. 26)): ≦0.125 mcg/mL
MIC Values (Staph. aureus 29213; strain ATCC29213, control sample (Ex. 37)): ≦0.125 mcg/mL
Compound: C[C@@H](O)[C@H]1C(=O)N2C(C(=O)O)=C(SCCN=CN)C[C@H]12 [IPM, imipenem]
